Source: EP1689759B1, “METHOD FOR PRODUCING PURE DISODIUM PAMIDRONATE” (Mustafa Nevzat Ilac Sanayii A.S., priority 2003, dated 2005)
Where “and” joins values, the source holds several entries; their conditions need not be identical. Identical values can stand only once.

What was measured:
[1] = Storage stability at normal pressure over 1 week under ICH conditions (water content by KF); assay type: physicochemical
Method: (§1) These investigations were carried out in a HERAEUS vacuum drying oven of a volume of 53 liters, at a relative humidity (RH) of less than 1 %. Investigations of storage stability at normal pressure were carried out over a period of 1 week, in compliance with the internationally accepted standards about storage stability test conditions for pharmaceuticals as defined in ICH (International Conference on Harmonization of Technical Requirements for Registration of Pharmaceuticals for Human Use), at 25°C / 60 % RH for longterm stability condition, 30°C / […] for intermediate term stability condition and 40°C / 75 % RH for accelerated stability condition.
Table 1. Water content (%, KF) of 3 lots of disodium pamidronate after storage for 1 week

[2] = Storage at room temperature at reduced pressure in vacuum drying oven (water content by KF); assay type: physicochemical; conditions: for water by KF method: room temperature, reduced pressure (20 millibar), RH less than 1 %
Method: as §1

[3] = from 1 week under the conditions of 24°C, 50 % RH; water contents 24,41 %; cited from earlier work

NCCC(O)(P(=O)([O-])O)P(=O)([O-])O.O.O.O.O.O.[Na+].[Na+] [Lot 0034, disodium pamidronate pentahydrate]
Water content (%, KF) ([1]; after storage for 1 week at 25°C/60%RH (longterm stability condition), listed as 0034): 24.37%
Water content (%, KF) ([1]; after storage for 1 week at 30°C/60%RH (intermediate term stability condition), listed as 0034): 24.38%
Water content (%, KF) ([1]; after storage for 1 week at 40°C/75%RH (accelerated stability condition), listed as 0034): 24.43%
Water content (%, KF) ([1]; initial, before storage, listed as 0034): 24.55%

NCCC(O)(P(=O)([O-])O)P(=O)([O-])O.O.O.O.O.O.[Na+].[Na+] [Lot 0036, disodium pamidronate pentahydrate]
Water content (%, KF) ([1]; after storage for 1 week at 25°C/60%RH (longterm stability condition), listed as 0036): 24.32%
Water content (%, KF) ([1]; after storage for 1 week at 30°C/60%RH (intermediate term stability condition), listed as 0036): 24.35%
Water content (%, KF) ([1]; after storage for 1 week at 40°C/75%RH (accelerated stability condition), listed as 0036): 24.39%
Water content (%, KF) ([1]; initial, before storage, listed as 0036): 24.48%

NCCC(O)(P(=O)([O-])O)P(=O)([O-])O.O.O.O.O.O.[Na+].[Na+] [Lot 0035, disodium pamidronate pentahydrate]
Water content (%, KF) ([1]; after storage for 1 week at 25°C/60%RH (longterm stability condition), listed as 0035): 24.40%
Water content (%, KF) ([1]; after storage for 1 week at 30°C/60%RH (intermediate term stability condition), listed as 0035): 24.39%
Water content (%, KF) ([1]; after storage for 1 week at 40°C/75%RH (accelerated stability condition), listed as 0035): 24.27%
Water content (%, KF) ([1]; initial, before storage, listed as 0035): 24.38%

NCCC(O)(P(=O)([O-])O)P(=O)([O-])O.O.O.O.O.O.[Na+].[Na+] [disodium pamidronate pentahydrate]
storage stability ([1]; 1 week at 25°C/60 % RH, 30°C/60 % RH and 40°C/75 % RH): stable
water by KF method ([2]; after 4 hours of storage): 24.7%
water by KF method ([2]; after 10 hours of storage): 24.4%
water by KF method ([2]; after 38 hours of storage (determined in triplicate)): 24.35% and 24.38% and 24.32%
Stability of the product (loss of water) ([2]; stored at room temperature at reduced pressure (20 millibar)): no loss of water

NCCC(O)(P(=O)([O-])O)P(=O)([O-])O.O.O.O.O.O.[Na+].[Na+] [5 hydrates]
loss of water contents on storage [3]: a part of the water contents (24,41 %) is lost
